EC50 and IC50 data for 24 molecules are collected here from patent US10106571B2, “HCV polymerase inhibitors” (priority 2013, dated 2018).

pEC50, pIC50: −log10 of the molar value.

The first assay concerns HCV type 1b replicon (Huh-7 luc/neo, Huh-Luc). Put plainly: Replicon assay, Huh-Luc cells with HCV type 1b replicon (stable), luciferase readout. Conditions: Hepatitis C virus, Huh-7, 72 h, Huh-Luc HCV 1b replicon, three days incubation, luciferase activity; read-out: EC50. It counts as cell-based. The source says: The compounds of formula I may be examined for activity in the inhibition of HCV RNA replication in a cellular assay aimed at identifying compounds that inhibit a HCV functional cellular replicating cell line, also known as HCV replicons. A suitable cellular assay is based on a bicistronic expression construct, as described by Lohmann et al. (1999), Science vol. 285 pp. 110-113 with modifications described by Krieger et al. (2001), Journal of Virology 75: 4614-4624, in a multi-target screening strategy.
The assay utilizes the stably transfected cell line Huh-7 luc/neo (hereafter referred to as Huh-Luc). This cell line harbors an RNA encoding a bicistronic expression construct comprising the wild type NS3-NS5B regions of HCV type 1b translated from an Internal Ribosome Entry Site (IRES) from encephalomyocarditis virus (EMCV), preceded by a reporter portion (FfL-luciferase), and a selectable marker portion (neo^R, neomycine phosphotransferase). The construct is bordered by 5′ and 3′ NTRs (non-translated regions) from HCV type 1b. Continued culture of the replicon cells in the presence of G418 (neo^R) is dependent on the replication of the HCV RNA. The stably transfected replicon cells that express HCV RNA, which replicates autonomously and to high levels, encoding inter alia luciferase, are used for screening the antiviral compounds.
The replicon cells are plated in 384 well plates in the presence of the test and control compounds which are added in various concentrations. Following an incubation of three days, HCV replication is measured by assaying luciferase activity (using standard luciferase assay substrates and reagents and a Perkin Elmer ViewLux™ ultraHTS microplate imager). Replicon cells in the control cultures have high luciferase expression in the absence of any inhibitor. The inhibitory activity of a compound on luciferase activity is monitored on the Huh-Luc cells, enabling a dose-response curve for each test compound. EC50 values are then calculated, which value represents the amount of the compound required to decrease the level of detected luciferase activity by 50%, or more specifically, the ability of the genetically linked HCV replicon RNA to replicate.
In general terms: In antiviral work, replicon cells carry a viral genome segment that copies itself.
As to `CC(C)OC(=O)[C@H](C)NP(=O)(OC[C@H]1O[C@@H](n2ccc(=O)[nH]c2=O)[C@@](F)(Cl)[C@@H]1O)Oc1cccc(C2CC2)c1` (stereo partly drawn) [Example 12], the pEC50 (commonly the negative decadic logarithm of the EC50, by convention in mol/L) was 6.74.
On the same count and under the same terms, to `CC(C)OC(=O)[C@H](C)NP(=O)(OC[C@H]1O[C@@H](n2ccc(=O)[nH]c2=O)[C@@](F)(Cl)[C@@H]1O)Oc1cccc(C2(C)CC2)c1` (stereo partly drawn) [Example 16] belongs 7.04.
Turning to `CC(C)OC(=O)[C@H](C)NP(=O)(OC[C@H]1O[C@@H](n2ccc(=O)[nH]c2=O)[C@@](F)(Cl)[C@@H]1O)Oc1cccc(C2CCC2)c1` (stereo partly drawn) [Example 15], the pEC50 was 7.05.
For `COc1ccccc1OP(=O)(N[C@@H](C)C(=O)OC(C)C)OC[C@H]1O[C@@H](n2ccc(=O)[nH]c2=O)[C@@](F)(Cl)[C@@H]1O` (stereo partly drawn) [Example 10], the negative-log EC50 (pEC50) was 7.35.
In the case of `CC(C)OC(=O)[C@H](C)NP(=O)(OC[C@H]1O[C@@H](n2ccc(=O)[nH]c2=O)[C@@](F)(Cl)[C@@H]1O)Oc1cccc2ncccc12` (stereo partly drawn) [Example 24], the pEC50 is 5.85.
Same read-out and setting: to `COC[C@@H](C)OC(=O)[C@H](C)NP(=O)(OC[C@H]1O[C@@H](n2ccc(=O)[nH]c2=O)[C@@](F)(Cl)[C@@H]1O)Oc1ccccc1` (stereo partly drawn) [Example 20] belongs 7.19.
The same measure, in the same setting: to `CC[C@@H](C)OC(=O)[C@H](C)NP(=O)(OC[C@H]1O[C@@H](n2ccc(=O)[nH]c2=O)[C@@](F)(Cl)[C@@H]1O)Oc1ccccc1` (stereo partly drawn) [Example 5] belongs 7.37; to `CC[C@H](C)OC(=O)[C@H](C)NP(=O)(OC[C@H]1O[C@@H](n2ccc(=O)[nH]c2=O)[C@@](F)(Cl)[C@@H]1O)Oc1ccccc1` (stereo partly drawn) [Example 13], 7.21.
`COC[C@H](C)OC(=O)[C@H](C)NP(=O)(OC[C@H]1O[C@@H](n2ccc(=O)[nH]c2=O)[C@@](F)(Cl)[C@@H]1O)Oc1ccccc1` (stereo partly drawn) [Example 25]: the negative logarithm of the EC50 (pEC50) was 7.00.
On to `CCCCOC(=O)[C@H](C)NP(=O)(OC[C@H]1O[C@@H](n2ccc(=O)[nH]c2=O)[C@@](F)(Cl)[C@@H]1O)Oc1ccccc1` (stereo partly drawn) [Example 8], for which the pEC50 is 7.36.
Take `COCC(COC)OC(=O)[C@H](C)NP(=O)(OC[C@H]1O[C@@H](n2ccc(=O)[nH]c2=O)[C@@](F)(Cl)[C@@H]1O)Oc1ccccc1` (stereo partly drawn) [Example 21]: the pEC50 is 6.68.
Take `COc1ccc(OP(=O)(N[C@@H](C)C(=O)OC(C)C)OC[C@H]2O[C@@H](n3ccc(=O)[nH]c3=O)[C@@](F)(Cl)[C@@H]2O)cc1` (stereo partly drawn) [Example 11]: the pEC50 is 6.82.
Same read-out and setting: to `CC(C)OC(=O)[C@H](C)NP(=O)(OC[C@H]1O[C@@H](n2ccc(=O)[nH]c2=O)[C@@](F)(Cl)[C@@H]1O)Oc1ccc2c(c1)OCO2` (stereo partly drawn) [Example 9] belongs 6.72.
As for `CCC(CC)COC(=O)[C@H](C)NP(=O)(OC[C@H]1O[C@@H](n2ccc(=O)[nH]c2=O)[C@@](F)(Cl)[C@@H]1O)Oc1ccccc1` (stereo partly drawn) [Example 7], the pEC50 is 7.26.
In the case of `CCCOC(=O)[C@H](C)NP(=O)(OC[C@H]1O[C@@H](n2ccc(=O)[nH]c2=O)[C@@](F)(Cl)[C@@H]1O)Oc1ccccc1` (stereo partly drawn) [Example 14], the pEC50 was 7.12.
Regarding `O=c1ccn([C@@H]2O[C@H](CO)[C@@H](O)[C@]2(F)Cl)c(=O)[nH]1` [Example 1, 1-((2R,3S,4R,5R)-3-chloro-3-fluoro-4-hydroxy-5-(hydroxymethyl)tetrahydrofuran-2-yl)pyrimidine-2,4(1H,3H)-dione], the pEC50 is < 4.30.
Take `CCOC(=O)[C@H](C)NP(=O)(OC[C@H]1O[C@@H](n2ccc(=O)[nH]c2=O)[C@@](F)(Cl)[C@@H]1O)Oc1ccccc1` (stereo partly drawn) [Example 6]: the pEC50 is 7.10.
`CC(C)OC(=O)[C@H](C)NP(=O)(OC[C@H]1O[C@@H](n2ccc(N)nc2=O)[C@@](F)(Cl)[C@@H]1O)Oc1ccccc1` (stereo partly drawn) [Example 26, (2S)-Isopropyl 2-(((((2R,3R,4S,5R)-5-(4-amino-2-oxopyrimidin-1(2H)-yl)-4-chloro-4-fluoro-3-hydroxytetrahydrofuran-2-yl)methoxy)(phenoxy)phosphoryl)amino)propanoate]: the pEC50 is 7.07.
For the molecule `CCC(CC)OC(=O)[C@H](C)NP(=O)(OC[C@H]1O[C@@H](n2ccc(=O)[nH]c2=O)[C@@](F)(Cl)[C@@H]1O)Oc1ccccc1` (stereo partly drawn) [Example 22], the pEC50 was 7.24.
In the case of `C[C@H](NP(=O)(OC[C@H]1O[C@@H](n2ccc(=O)[nH]c2=O)[C@@](F)(Cl)[C@@H]1O)Oc1ccccc1)C(=O)OC1CCCCC1` (stereo partly drawn) [Example 4, (2S)-cyclohexyl 2-(((((2R,3R,4S,5R)-4-chloro-5-(2,4-dioxo-3,4-dihydropyrimidin-1(2H)-yl)-4-fluoro-3-hydroxytetrahydrofuran-2-yl)methoxy)(phenoxy)phosphoryl)amino)propanoate], the pEC50 is 7.05.
`CC(C)OC(=O)[C@H](C)NP(=O)(OC[C@H]1O[C@@H](n2ccc(=O)[nH]c2=O)[C@@](F)(Cl)[C@@H]1O)Oc1ccc(C2(C)CC2)cc1` (stereo partly drawn) [Example 17]: the pEC50 is 6.96.

The same assay, now with this note: Huh-Luc HCV 1b replicon, three days incubation, luciferase activity; read-out: EC50.
For the molecule `CC(C)OC(=O)[C@H](C)NP(=O)(OC[C@H]1O[C@@H](n2ccc(=O)[nH]c2=O)[C@@](F)(Cl)[C@@H]1O)Oc1ccccc1` (stereo partly drawn) [Example 23], the pEC50 is 5.29.

A further assay concerns the target HCV NS5B-21 (Hepatitis C virus genotype 1b (isolate Con1) (HCV), UniProt Q9WMX2). In words: Enzyme assay, HCV NS5B-21 SPA (scintillation proximity assay). The format is biochemical. The note with it: triphosphates. Here is the method:
It is this triphosphate which is believed to be the antivirally active species. The enzyme assay described here may be used to confirm that compounds of the invention are antivirally active as the 5′-triphosphate metabolite.
The enzyme assay measures the inhibitory effect of triphosphate compounds in an HCV NS5B-21 (21-amino acid C-terminally truncated version) SPA assay (scintillation proximity assay). The assay is performed by evaluating the amount of radiolabelled ATP incorporated by HCV NS5B-21 into newly synthesized RNA using an heterogeneous biotinylated RNA template.
To determine IC50 values the compounds are tested at various concentrations in a final volume of 100 μl of reaction mixture. The reaction is stopped by addition of 0.5M EDTA solution.
The samples are transferred into flashplates precoated with streptavidin. The incorporated radioactivity is quantified using a scintillation counter (Wallac Microbeta Trilux).
The assay should include enzyme controls (about four, containing 1 μl DMSO instead of inhibitor) and background control containing all ingredients except template.
Compounds are serially diluted in DMSO on a separate dilution plate to 100× the final desired assay concentrations. […]
Incubate the plate over night and read the flash plate in the Microbeta Trilux using the protocol Flash plates H3. […]
IC50 is determined using Graphpad Prism. […]
Background: In a scintillation proximity assay essentially only radioactivity close to the scintillant gives light.
Turning to `Nc1ccn([C@@H]2O[C@H](COP(=O)(O)OP(=O)(O)OP(=O)(O)O)[C@@H](O)[C@]2(F)Cl)c(=O)n1` [Example 27, (((2R,3R,4 S, 5R)-5-(4-amino-2-oxopyrimidin-1(2H)-yl)-4-chloro-4-fluoro-3-hydroxytetrahydrofuran-2-yl)methyl)triphosphoric acid], the pIC50 (as a rule, −log10 of the IC50, conventionally taken in molar units) is 7.05.
In the case of `O=c1ccn([C@@H]2O[C@H](COP(=O)(O)OP(=O)(O)OP(=O)(O)O)[C@@H](O)[C@]2(F)Cl)c(=O)[nH]1` [Example 3, Lithium ((2R,3R,4 S,5R)-4-chloro-5-(2,4-dioxo-3,4-dihydropyrimidin-1(2H)-yl)-4-fluoro-3-hydroxytetrahydrofuran-2-yl)methyl triphosphate], the pIC50 is 6.14.
